# Measurements as given in EP0997459A1, “Intermediates for preparing retroviral protease inhibiting compounds” (priority 1990, dated 1992).
# Read-outs that look alike come from different tables or passages of the source.
# What was measured:
# HIV-13B = test: Antiviral activity: inhibition of the cytopathic effect of HIV in MT4 cells (procedure of Pauwels et al.); format: cell-based; details: Human immunodeficiency virus 1, MT4
# Excerpt: (§1) The anti-HIV activity of the compounds of the invention can be determined in MT4 cells according to the procedure of Pauwels et. al. (J. Virol. Methods 1988, 20, 309).
# HIV-1 protease = HIV-1 protease (Human immunodeficiency virus type 1 group M subtype B, UniProt P04585); test: Fluorogenic assay for screening inhibitors of HIV protease; format: biochemical; details: read-out: Percent Inhibition
# Protocol: Fluorogenic Assay for Screening Inhibitors of HIV Protease
# The inhibitory potency of the compounds of the invention can be determined by the following method.
# A compound of the invention is dissolved in DMSO and a small aliquot further diluted with DMSO to 100 times the final concentration desired for testing. The reaction is carried out in a 6 X 50 mm tube in a total volume of 300 microliters. The final concentrations of the components in the reaction buffer are: 125 mM sodium acetate, 1 M sodium chloride, 5 mM dithiothreitol, 0.5 mg/ml bovine serum albumin, 1.3 µM fluorogenic substrate, 2% (v/v) dimethylsulfoxide, pH 4.5. After addition of inhibitor, the reaction mixture is placed in the fluorometer cell holder and incubated at 30°C for several minutes. The reaction is initiated by the addition of a small aliquot of cold HIV protease. The fluorescence intensity (excitation 340 nm, emmision 490 nM) is recorded as a function of time. The reaction rate is determined for the first six to eight minutes. The observed rate is directly proportional to the moles of substrate cleaved per unit time. The percent inhibition is 100 X (1 - (rate in presence of inhibitor)/(rate in absence of inhibitor)).
# [1] = Cell viability (LC50) in MT4 cells in the antiviral test; format: cell-based; details: human, concentration at which 50% of the cells remain viable
# Excerpt: as §1
# [2] = Inhibitor Concentration 0.5 nanomolar
Structure (SMILES),IC50 (HIV-13B),also measured
"CC(C)[C@H](NC(=O)OCc1ccccn1)C(=O)N[C@@H](Cc1ccccc1)[C@@H](O)C[C@H](Cc1ccccc1)NC(=O)OCc1cncnc1 [Example 319, (2S,3S,5S)-2-(N-(N-((2-Pyridinyl)methoxycarbonyl)valinyl)amino)-5-(N-((5-pyrimidinyl)methoxycarbonyl)amino)-1,6-diphenyl-3-hydroxyhexane]",0.21 to 0.29 µM,–
Cc1cncc(CN(C)C(=O)N[C@H](C(=O)N[C@@H](Cc2ccccc2)C[C@H](O)[C@H](Cc2ccccc2)NC(=O)OCc2cccnc2)C(C)C)c1 [Example 314],0.098 to 0.144 µM,–
"Cc1cccc(COC(=O)N[C@H](C(=O)N[C@@H](Cc2ccccc2)[C@@H](O)C[C@H](Cc2ccccc2)NC(=O)OCc2ccoc2)C(C)C)n1 [Example 322B, (2S,3S,5S)-2-(N-(N-(2-(6-Methylpyridinyl)methoxycarbonyl)valinyl)amino)-5-(N-((3-furyl)methoxycarbonyl)amino)-1,6-diphenyl-3-hydroxyhexane]",0.086 to 0.094 µM,–
"CC(C)[C@H](NC(=O)N(C)Cc1ccccn1)C(=O)N[C@@H](Cc1ccccc1)C[C@H](O)[C@H](Cc1ccccc1)NC(=O)OCc1cncnc1 [Example 320, (2S,3S,5S)-5-(N-(N-((N-Methyl-N-((2-pyridinyl)methyl)amino)carbonyl)valinyl)amino)-2-(N-((5-pyrimidinyl)methoxycarbonyl)amino)-1,6-diphenyl-3-hydroxyhexane]",0.4 to 0.5 µM,–
Cc1cccc(COC(=O)N[C@H](C(=O)N[C@@H](Cc2ccccc2)[C@@H](O)C(F)(F)[C@H](Cc2ccccc2)NC(=O)[C@@H](NC(=O)OCc2cccc(C)n2)C(C)C)C(C)C)n1 [Example 305],0.005 to 0.017 µM,inhibition at 0.0005 µM (HIV-1 protease; [2]): 91%
"CC(C)[C@H](NC(=O)OCc1ccccn1)C(=O)N[C@@H](Cc1ccccc1)[C@@H](O)C[C@H](Cc1ccccc1)NC(=O)OCc1cccnc1 [Example 39, (2S,3S,5S)-2-(N-(N-((2-Pyridinyl)methoxycarbonyl)valinyl)amino)-5-(N-((3-pyridinyl)methoxycarbonyl)amino)-1,6-diphenyl-3-hydroxyhexane]",0.13 to 0.25 µM,–
Cc1cccc(CN(C)C(=O)N[C@H](C(=O)N[C@@H](Cc2ccccc2)C[C@H](O)[C@H](Cc2ccccc2)NC(=O)OCc2cccnc2)C(C)C)n1 [Example 298],0.22 to 0.29 µM,–
Cc1cccc(COC(=O)N[C@H](C(=O)N[C@@H](Cc2ccccc2)C(=O)C(F)(F)[C@H](Cc2ccccc2)NC(=O)[C@@H](NC(=O)OCc2cccc(C)n2)C(C)C)C(C)C)n1 [Example 306],0.007 to 0.019 µM,inhibition at 0.0005 µM (HIV-1 protease; [2]): 88%
"CC(C)[C@H](NC(=O)OCc1ccc2ccccc2n1)C(=O)N[C@@H](Cc1ccccc1)C[C@H](O)[C@H](Cc1ccccc1)NC(=O)OCc1cccnc1 [Example 327, (2S,3S,5S)-5-(N-(N-((2-Ouinolinyl)methoxycarbonyl)valinyl)amino)-2-(N-((3-pyridinyl)methoxycarbonyl)amino)-1,6-diphenyl-3-hydroxyhexane]",0.034 to 0.064 µM,CC50 [1]: 84 µM; inhibition at 0.0005 µM (HIV-1 protease): 69%
COc1ccc(CN(C)C(=O)N[C@H](C(=O)N[C@@H](Cc2ccccc2)C[C@H](O)[C@H](Cc2ccccc2)NC(=O)OCc2cccnc2)C(C)C)cn1 [Example 312],0.058 to 0.077 µM,–
"CC(C)[C@H](NC(=O)OCc1ccccn1)C(=O)N[C@@H](Cc1ccccc1)C[C@H](O)[C@H](Cc1ccccc1)NC(=O)OCc1cncnc1 [Example 321, (2S,3S,5S)-5-(N-(N-((2-Pyridinyl)methoxycarbonyl)valinyl)amino)-2-(N-((5-pyrimidinyl)methoxycarbonyl)amino)-1,6-diphenyl-3-hydroxyhexane]",0.14 to 0.19 µM,inhibition at 0.0005 µM (HIV-1 protease): 64%
"Cc1cncc(CN(C)C(=O)N[C@H](C(=O)N[C@@H](Cc2ccccc2)[C@@H](O)C[C@H](Cc2ccccc2)NC(=O)OCc2cccnc2)C(C)C)c1 [Example 313, (2S,3S,5S)-2-(N-(N-((N-Methyl-N-((5-methyl-3-pyridinyl)methyl)amino)carbonyl)valinyl)amino)-5-(N-((3-pyridinyl)methoxycarbonyl)amino)-1,6-diphenyl-3-hydroxyhexane]",0.46 to 0.5 µM,–
"CC(C)[C@H](NC(=O)N(C)Cc1ccccn1)C(=O)N[C@@H](Cc1ccccc1)[C@@H](O)C[C@H](Cc1ccccc1)NC(=O)OCc1cccnc1 [Example 37C, (2S,3S,5S)-2-(N-(N-((N-Methyl-N-((2-pyridinyl)-methyl)amino)carbonyl)valinyl)amino)-5-(N-((3-pyridinyl)methoxycarbonyl)amino)-1,6-diphenyl-3-hydroxyhexane]",0.84 to 1.44 µM,inhibition at 0.001 µM (HIV-1 protease): 61%
O=C(N[C@@H](Cc1ccccc1)C[C@H](O)[C@H](Cc1ccccc1)NC(=O)OCc1cccnc1)OCc1cccnc1 [Example 174],0.14 to 0.23 µM,inhibition at 0.0005 µM (HIV-1 protease; [2]): 51%
"O=C(N[C@@H](Cc1ccccc1)C[C@H](O)[C@H](Cc1ccccc1)NC(=O)OCc1ccno1)OCc1ccno1 [Example 334B, (2S,3S,5S)-2,5-Bis-(N-(isoxazol-5-ylmethoxycarbonyl)amino)-1,6-diphenyl-3-hydroxyhexane]",0.74 to 1.6 µM,CC50 [1]: 91 µM; inhibition at 0.001 µM (HIV-1 protease): 56%
COc1ccc(COC(=O)N[C@H](C(=O)N[C@@H](Cc2ccccc2)C[C@H](O)[C@H](Cc2ccccc2)NC(=O)OCc2cccnc2)C(C)C)cn1 [Example 310],0.013 to 0.025 µM,–
"Cc1cccc(COC(=O)N[C@H](C(=O)N[C@@H](Cc2ccccc2)C[C@H](O)[C@H](Cc2ccccc2)NC(=O)OCc2cccnc2)C(C)C)n1 [Example 290, (2S,3S,5S)-2-(N-[(pyridin-3-yl)methoxycarbonyl]amino)-5-(N-[(6-methylpyridin-2-yl)methoxycarbonyl-valyl]amino)-1,6-diphenyl-3-hydroxyhexane]",0.026 to 0.075 µM,–
"CC(C)[C@H](NC(=O)OCc1ccccn1)C(=O)N[C@@H](Cc1ccccc1)C[C@H](O)[C@H](Cc1ccccc1)NC(=O)OCc1cccnc1 [Example 40, (2S,3S,5S)-5-(N-(N-((2-Pyridinyl)methoxycarbonyl)valinyl)amino)-2-(N-((3-pyridinyl)methoxycarbonyl)amino)-1,6-diphenyl-3-hydroxyhexane]",0.23 to 0.55 µM,CC50 [1]: 64 µM; inhibition at 0.0005 µM (HIV-1 protease): 61%
Cc1cnc(COC(=O)N[C@H](C(=O)N[C@@H](Cc2ccccc2)C[C@H](O)[C@H](Cc2ccccc2)NC(=O)OCc2cccnc2)C(C)C)cn1 [Example 308],0.077 to 0.124 µM,–
"Cc1cccc(CN(C)C(=O)N[C@H](C(=O)N[C@@H](Cc2ccccc2)[C@@H](O)C[C@H](Cc2ccccc2)NC(=O)OCc2cccnc2)C(C)C)n1 [Example 297, (2S,3S-5S)-2-(N-(N-((N-Methyl-N-((6-methyl-2-pyridinyl)methyl)amino)carbonyl)valinyl)amino)-5-(N-((3-pyridinyl)-methoxycarbonyl)amino)-1,6-diphenyl-3-hydroxyhexane]",0.31 to 0.35 µM,–
"CC(C)[C@H](NC(=O)N(C)Cc1ccccn1)C(=O)N[C@@H](Cc1ccccc1)C[C@H](O)[C@H](Cc1ccccc1)NC(=O)OCc1cccnc1 [Example 38, (2S,3S,5S)-5-(N-(N-((N-Methyl-N-((2-pyridinyl)methyl)amino)carbonyl)valinyl)amino)-2-(N-((3-pyridinyl)methoxycarbonyl)amino)-1,6-diphenyl-3-hydroxyhexane]",0.55 to 0.61 µM,–
CC[C@H](C)[C@H](NC(=O)N(C)Cc1ccccn1)C(=O)N[C@@H](Cc1ccccc1)C[C@H](O)[C@H](Cc1ccccc1)NC(=O)OCc1cccnc1 [Example 171],0.38 to 0.55 µM,inhibition at 0.0005 µM (HIV-1 protease; [2]): 62%
COc1ccc(COC(=O)N[C@H](C(=O)N[C@@H](Cc2ccccc2)C[C@H](O)[C@H](Cc2ccccc2)NC(=O)[C@@H](NC(=O)OCc2ccc(OC)nc2)C(C)C)C(C)C)cn1 [Example 315],0.003 to 0.005 µM,inhibition at 0.0005 µM (HIV-1 protease): […]
"CC(C)[C@H](NC(=O)OCc1ccc2ccccc2n1)C(=O)N[C@@H](Cc1ccccc1)[C@@H](O)C[C@H](Cc1ccccc1)NC(=O)OCc1cccnc1 [Example 326, (2S,3S,5S)-2-(N-(N-((2-Ouinolinyl)methoxycarbonyl)valinyl)amino)-5-(N-((3-pyridinyl)methoxycarbonyl)amino)-1,6-diphenyl-3-hydroxyhexane]",0.053 to 0.086 µM,CC50 [1]: 27 µM; inhibition at 0.0005 µM (HIV-1 protease): 66%
"COc1ccc(CN(C)C(=O)N[C@H](C(=O)N[C@@H](Cc2ccccc2)[C@@H](O)C[C@H](Cc2ccccc2)NC(=O)OCc2cccnc2)C(C)C)cn1 [Example 311, (2S,3S,5S)-2-(N-(N-((N-Methyl-N-((6-methoxy-3-pyridinyl)methyl)amino)carbonyl)valinyl)amino)-5-(N-((3-pyridinyl)methoxycarbonyl)amino)-1,6-diphenyl-3-hydroxyhexane]",0.058 to 0.067 µM,–
Cc1cnc(COC(=O)N[C@H](C(=O)N[C@@H](Cc2ccccc2)[C@@H](O)C[C@H](Cc2ccccc2)NC(=O)OCc2cccnc2)C(C)C)cn1 [Example 307],0.16 to 0.26 µM,–
